Results: patent publication US9365851B2, “Spalt-like transcription factor 4 (SALL4) and uses thereof” (National University of Singapore, priority 2011, dated 2016)
Like-named read-outs stand apart in the source and are kept apart here.

Experiments:
HDAC1 and HDAC2 = assay: Anti-FITC pull-down from HL60 cell lysates, immunoblot for HDAC1 and HDAC2; assay type: binding, human
Method: FIG. 18: SALL4 peptide interacts with various components of the NuRD complex. Cell lysates from HL60 cells were mixed with wild type (wt) or mutant (mut) peptides end-labeled with FITC and immunoprecipitated with anti-FITC antibody (Santa Cruz). The complexes were pulled down with Dynabeads Antibody Coupling Kit (Invitrogen) according to the manufacturer's instructions. The samples were immunoblotted and probed for HDAC1 and HDAC2. […] The specificity was tested with mouse IgG instead of anti-FITC antibody.

SNU-398 = assay: Cellular uptake of FITC-labeled peptide; assay type: cell-based, human
Method: Cells were grown typically in 6 well plates (35 mm dish) to 50-70% confluence. Usually the transfect ion efficiency is somehow cell type specific. 2 mM peptide was diluted 4 times in PBS (2 ul+6 ul) (For FITC peptidedo not dilute the 2 mM stock). For each transfection reaction tube with 100 ul PBS+1 ul diluted peptide was set up. Chariot reagent was diluted 1:10 in ddH2O and for each transfection a 94 ul H2O tube+6 ul diluted Chariot was prepared (No master mix for more than 4 transfections). The 2 tubes were carefully mixed by pipetting up and down and incubated 30 min. at room temperature. Medium was aspirated from the dish (well) and cells were overlay with the mix. 400 ul serum free medium was added and cells were incubated further for 1 h 37 C (cell incubator). 500 ul complete medium (with 10% serum) was finally added. If cells are not very sensitive to serum starvation (cancer cell lines) 5% serum could be used.
Fluorescent and Confocal microscopy was performed on cells treated with FITC labeled peptides with or without of transfection reagent depending on the cell type. Cells were mounted on cover slips using mounting media with DAPI (Invitrogen) and in some cases cytoskeleton dye (Invitrogen).
In order to evaluate their cellular uptake and localization, the N terminus of these peptides was labeled with fluorescein isothiocyanate (FITC). Despite the net positive charge of these peptides, their uptake by the cells is cell-type specific. Some cell lines such as HL-60 (an AML cell line) allowed the peptide to enter the cells without any modification or carrier, and some cell lines were not penetrable at all. In order to achieve a similar level of peptide delivery in most cell types, a Chariot Transfection Reagent (Active Motif) was used as a peptide carrier, as directed from the manufacturer. All cell types used in the study described herein were subjected to individual evaluation of the percentage of the cells in which the peptide was delivered as well as the duration of time during which they sustained the labeled peptide in the cells. After Chariot treatment, confocal microscopy studies confirmed uptake of these peptides throughout the cell, including nuclei (as evidenced by DAPI overlay, FIG. 1B).
Next tested was the cellular uptake and localization of these peptides in various types of cells using FITC-labeled wild type or scrambled peptides. Despite the net positive charge of these peptides, their penetration into cells is cell type-specific. Some cell lines, such as HL-60 (an AML cell line), allowed peptide entry without any modification or facilitator, while others such as SNU-398 were not penetrable at all. […] The overall success rate of peptide uptake by the cells was above 95% with Pep-1, as evaluated by flow cytometry (FIG. 9A). […]

AN3CA cells = assay: Cell viability assay (MTT/MTS); assay type: cell-based, human; details: AN3CA (high SALL4, no PTEN)
Method: Cell viability assay (MTT) (Invitrogen) was performed according to the manufacturer's instructions. Briefly—10000 cells were seeded in 100 ul medium in 96 well plates. The next day cells were treated as indicated on the figures. At the designated time after the treatment 20 ul of 5 mg/ml MTT solution was added to each well. After 3.5 h incubation at 37 C the medium was removed and the reaction was terminated with a solution of 4 mM HCl, 0.1% Nondet P-40 (NP40) all in isopropanol in dark on orbital shaker for […]. at room temperature. The absorbance was read at 590 nm with a reference filter of 620 nm in Spectromax M3 (ABI) spectrophotometer.
Multiple leukemic and solid tumor cancer cell lines with high or low/no SALL4 expression (FIG. 10A) were chosen to test the biological effect(s) of the wild type peptide. Wild type or scrambled peptide was delivered into tumor cells at various concentrations, and their effects on cells were evaluated 72 hours post-treatment by the MTS cell viability assay. […] The effect of wild type peptide is SALL4-specific, as it had no effect on KBM5, an AML cell line with undetectable endogenous SALL4 expression. We were surprised to see that the wild type peptide had no effect on a high SALL4-expressing endometrioid cancer cell line, AN3CA. […] Therefore, expression of PTEN was evaluated in AN3CA cells along with other cell lines. […]

OV90 = assay: Peptide treatment of ovarian cancer cells; assay type: cell-based
Method: Mut-peptide: mutant peptide; WT-peptide: wild-type peptide.
To understand the mechanism(s) of SALL4 function(s), SALL4-associated proteins were identified by tandem mass spectrometry. Components of the Mi-2/nucleosome remodeling and deacetylase (NuRD) complex were found in SALL4-immunocomplexes along with HDAC activity in ESCs with endogenous SALL4 expression and 293T cells overexpressing SALL4. The SALL4-mediated transcriptional regulation was tested on one potential target gene: Phosphatase and Tensin Homolog (Pten). Pten was confirmed as SALL4 downstream targets by chromatin-immunoprecipitation (ChIP), and its expression level, when tested by quantitative reverse transcription polymerase chain reaction (qRT-PCR), was decreased in 293T cells overexpressing SALL4. […] A small peptide that can block the oncogenic role of SALL4 in repressing Pten has been generated.

peptide uptake (cells with peptide) (SNU-398; SNU-398, no carrier): 0%
peptide uptake (cells with peptide) (SNU-398; SNU-398, with Chariot): 40%
cells showing FITC-labeled peptide uptake (SNU-398; SNU-398, with Pep-1 carrier, flow cytometry): Over 90%
Substance: H-MSRRKQAKPQHI-OH [wt peptide, MSRRKQAKPQHI]
binding to HDAC1 and HDAC2 (HDAC1 and HDAC2): several folds higher activity than the mutant
cell viability (AN3CA cells): had no effect
living cells / cell death (OV90): decreased living cells
living cells / cell death (OV90; listed as small peptide): resulted in cell death
